Test results reported in patent US20250041204A1, “COMPOSITION COMPRISING LACTOBACILLUS CRISPATUS BACTERIAL LYSATES AND/OR BACTERIA FOR IMPROVING SKIN CONDITION” (BIOTIX PTE LTD, priority 2021, published 2025).

How the values were obtained:
[1] = test system: primary adult keratinocytes (NHEK); experiment: In vitro irritation model (SDS, MTT survival); assay type: cell-based; conditions: for protection of keratinocytes from SDS induced cell damage: in vitro irritant test, comparison of active principles
Description: Next, the functional effects of L. Crispatus in keratinocytes was investigated using an in vitro irritation model using primary adult keratinocytes (NHEK).
Primary keratinocytes from passage 2 to 3 were cultured in 96 well plates at a seed concentration of 7,000 cells/well and cultured in complete keratinocyte medium. […] After 2 hours pre incubation, cells were treated with SDS. 2 hours later MTT was added to the culture and incubated for further 2 hours for a total incubation time of 6 hours. After incubation, the MTT assay was developed according to manufacturing instruction and O.D was measured in a 96 well plate reader to determine the survival rate of the keratinocytes.

[2] = test system: skin of healthy volunteers; experiment: Skin irritant test in healthy volunteers (occlusive plaster on forearm); assay type: in vivo, human; conditions: SDS 4% in PBS alone, 24 hours occlusion
Description: The same amount of each solution was applied to a plaster with a dimension of 1 cm^2. The plasters containing the solutions were then applied on the forearm of healthy donors in occlusion to increase penetration of the solution into the skin. 24 hours after application, the plasters were removed, pictures were recorded and irritation was evaluated by blinded dermatologists.

In the case of `CC(C)(CO)[C@@H](O)C(=O)NCCCO` [Panthenol], the “protection of keratinocytes from SDS induced cell damage” value [1] is reported as “not any other active principle protected”.
For `CCCCCCCCCCCCOS(=O)(=O)[O-].[Na+]` [SDS], the “skin inflammation (erythema and immune cell infiltration)” value [2] was “induced skin inflammation in all the individuals” and the survival rate ([1]; SDS alone, 6 to 8 hours incubation, MTT) was 0%.
For Ceramides, the “protection of keratinocytes from SDS induced cell damage” value [1] was “not any other active principle protected”.
